According to patent US8309558B2, “Compounds for the treatment of hepatitis C” (Bristol-Myers Squibb Company, priority 2008, dated 2012):
Where two headings read alike, the source gives them in different places.

Assays:
[1] = target: T1, HCV NS5B RdRp genotype 1b (Hepatitis C virus genotype 1b, UniProt Q9WMX2); test: Standard HCV NS5B RdRp enzyme assay; assay type: biochemical; settings: HCV NS5B RdRp genotype 1b, read-out: IC50
T1 construct: The protein was expressed with an 18 amino acid C-terminal truncation to enhance the solubility; made in house; host or cells: E. coli BL21(DE3), pET21a vector
Procedure, shortened: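 C-terminally truncated (18 aa) genotype 1b NS5B from E. coli, 28 nM, with 6 nM polyA template, 180 nM biotinylated oligo-dT12 primer and 3H-UTP (0.29 μM total UTP). Hepes pH 7.5 buffer with 2% DMSO; 60 min at 30° C. EDTA stop, SPA read-out; IC50 from seven concentrations by four-parameter fit.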

HCV replicon cells = test: HCV replicon FRET / luciferase assay (96-well plates); assay type: cell-based; settings: Hepatitis C virus, HCV replicon, read-out: EC50
Procedure, shortened: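 Replicon cells + titrated cpds, 37 °C CO2. Alamar blue for cytotoxicity, PBS rinse, then lysis reagent w/ 20 μM FRET peptide (EDANS/DABCYL), 150 mM NaCl; kinetic read ex340/em490, 20 cycles. Alt: Dual-Glo luciferase. EC50 = 50% drop in FRET/luciferase signal after background subtraction.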

T1 sequence (Q9WMX2 2420-2992): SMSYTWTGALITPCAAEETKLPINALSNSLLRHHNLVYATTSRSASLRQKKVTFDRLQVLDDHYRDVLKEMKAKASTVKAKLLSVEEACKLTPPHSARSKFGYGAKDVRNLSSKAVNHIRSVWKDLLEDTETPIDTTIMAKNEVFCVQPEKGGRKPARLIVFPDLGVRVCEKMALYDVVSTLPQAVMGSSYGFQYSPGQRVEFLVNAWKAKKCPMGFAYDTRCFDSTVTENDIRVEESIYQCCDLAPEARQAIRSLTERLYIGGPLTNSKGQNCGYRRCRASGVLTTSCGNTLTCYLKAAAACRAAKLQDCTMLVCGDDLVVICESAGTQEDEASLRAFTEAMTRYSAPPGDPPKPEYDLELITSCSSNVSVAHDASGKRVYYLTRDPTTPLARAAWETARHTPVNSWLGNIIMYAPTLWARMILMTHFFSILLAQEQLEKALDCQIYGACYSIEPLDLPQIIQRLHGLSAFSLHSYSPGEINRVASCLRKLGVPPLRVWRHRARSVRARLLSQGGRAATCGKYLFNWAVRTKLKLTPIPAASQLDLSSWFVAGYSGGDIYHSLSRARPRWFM

| SMILES | IC50 ([1]; Table 1a) [nM] | EC50 (HCV replicon cells; Table 1a) [nM] | IC50 ([1]; Table 1b) [nM] | EC50 (HCV replicon cells; Table 1b) [nM] | other results |
| --- | --- | --- | --- | --- | --- |
| CCN1CCN(C(=O)c2cccc(-c3ccc4oc(-c5ccc(F)cc5)c(C(=O)NC)c4c3)c2)CC1 | 1000 to 10000 | 1000 to 10000 |  |  |  |
| CNC(=O)c1c(-c2ccc(F)cc2)oc2ccc(-c3cccc(C(=O)NCCN(C)C)c3)cc12 | 1000 to 10000 | 1000 to 10000 |  |  |  |
| CNC(=O)c1c(-c2ccc(F)cc2)oc2ccc(-c3cc(C(=O)NC4(c5ccccc5)CC4)ccc3F)cc12 [drawing 100] | < 250 | < 250 |  |  |  |
| CNC(=O)c1c(-c2ccc(F)cc2)oc2ccc(-c3cc(C(=O)NCC(C)C)ccc3OCCc3ccc(O)cc3)cc12 |  |  | 250 to 1000 | 250 to 1000 |  |
| CNC(=O)c1c(-c2ccc(F)cc2)oc2ccc(-c3cccc(C(=O)Nc4ccnc(C)c4)c3)cc12 | 1000 to 10000 | 250 to 1000 |  |  |  |
| CNC(=O)c1c(-c2ccc(F)cc2)oc2ccc(-c3ccc(C(=O)O)c(Cl)c3)cc12 | 1000 to 10000 | > 10000 |  |  |  |
| CNC(=O)c1c(-c2ccc(F)cc2)oc2ccc(-c3cc(C(=O)NCC(C)C)ccc3OCc3ccncc3)cc12 |  |  | < 250 | < 250 |  |
| CNC(=O)c1c(-c2ccc(F)cc2)oc2ccc(-c3cccc(C(=O)N4CCCCC4)c3)cc12 | 250 to 1000 | 1000 to 10000 |  |  |  |
| CNC(=O)c1c(-c2ccc(F)cc2)oc2ccc(-c3ccc(-c4ccccc4C(N)=O)c(C(=O)NC4(c5ccccn5)CC4)c3)cc12 |  |  | < 250 | < 250 |  |
| CNC(=O)c1c(-c2ccc(F)cc2)oc2ccc(-c3cccc(C(=O)NC(C)(C)C(=O)Nc4nccs4)c3)cc12 | < 250 | < 250 |  |  |  |
| CNC(=O)c1c(-c2ccc(F)cc2)oc2ccc(-c3sccc3C(=O)O)cc12 | > 10000 | > 10000 |  |  |  |
| CNC(=O)c1c(-c2ccc(F)cc2)oc2ccc(-c3cccc(C(=O)NC(C)(C)Cc4ccc(F)cc4)c3)cc12 | 250 to 1000 | < 250 |  |  |  |
| CNC(=O)c1c(-c2ccc(F)cc2)oc2ccc(-c3ccc(-c4cccc(CC#N)c4)c(C(=O)NCC(C)C)c3)cc12 |  |  | < 250 | < 250 |  |
| CCOC(=O)[C@H](C)NC(=O)c1cccc(-c2ccc3oc(-c4ccc(F)cc4)c(C(=O)NC)c3c2)c1 | < 250 | 1000 to 10000 |  |  |  |
| CNC(=O)c1c(-c2ccc(F)cc2)oc2ccc(-c3cccc(S(=O)(=O)NC(C)(C)C)c3)cc12 | > 4000 | > 10000 |  |  |  |
| CNC(=O)c1c(-c2ccc(F)cc2)oc2ccc(-c3cc(C(=O)NCC(C)C)ccc3OCc3ccnc(Br)c3)cc12 |  |  | 250 to 1000 | 250 to 1000 |  |
| CNC(=O)c1c(-c2ccc(F)cc2)oc2cc(N)c(-c3cc(C(=O)NC4(c5ccccc5)CC4)ccc3OC)cc12 |  |  | < 250 | < 250 |  |
| CNC(=O)c1c(-c2ccc(F)cc2)oc2ccc(-c3cccc(C(=O)N[C@H](C(N)=O)C(C)C)c3)cc12 | 250 to 1000 | 1000 to 10000 |  |  |  |
| CNC(=O)c1c(-c2ccc(F)cc2)oc2ccc(-c3cccc(C(=O)Nc4ccc(OC)cc4)c3)cc12 | < 250 | < 250 |  |  |  |
| CNC(=O)c1c(-c2ccc(F)cc2)oc2ccc(-c3cccc(C(=O)NC(C)(C)c4ccc(F)cc4)c3)cc12 | < 250 | < 250 |  |  |  |

| SMILES | IC50 ([1]; Table 1a) [nM] | EC50 (HCV replicon cells; Table 1a) [nM] | IC50 ([1]; Table 1b) [nM] | EC50 (HCV replicon cells; Table 1b) [nM] | other results |
| --- | --- | --- | --- | --- | --- |
| CNC(=O)c1c(-c2ccc(F)cc2)oc2ccc(-c3cc(OCc4cc(C)on4)cc(C(=O)NCC(C)C)c3)cc12 |  |  | > 1390 | 1000 to 10000 |  |
| CNC(=O)c1c(-c2ccc(F)cc2)oc2ccc(-c3cc(C(=O)NC4(c5nc(C)no5)CC4)c(OC)cc3C)cc12 [drawing 500] |  |  | < 250 | < 250 |  |
| CNC(=O)c1c(-c2ccc(F)cc2)oc2ccc(Oc3ccc(/C=C(\NC(=O)c4ccccc4)C(=O)OC)cc3)cc12 | 1000 to 10000 | 1000 to 10000 |  |  |  |
| CCCNC(=O)c1cccc(-c2ccc3oc(-c4ccc(F)cc4)c(C(=O)NC)c3c2)c1 | < 250 | < 250 |  |  |  |
| CNC(=O)c1c(-c2ccc(F)cc2)oc2ccc(-c3ccc(Cl)c(C(=O)NCC(C)C)c3)cc12 | 1000 to 10000 | 1000 to 10000 |  |  |  |
| CNC(=O)c1c(-c2ccc(F)cc2)oc2ccc(-c3cc(C(=O)NC4(c5ccccn5)CC4)c(O)cc3Cl)cc12 |  |  | < 250 | 250 to 1000 |  |
| CNC(=O)c1c(-c2ccc(F)cc2)oc2ccc(-c3cc(C(=O)NC(C)(C)C4CC4)ccc3C)cc12 |  |  | < 250 | < 250 |  |
| CNC(=O)c1c(-c2ccc(F)cc2)oc2ccc(-c3ccc(-c4cncc5ccccc45)c(C(=O)NCC(C)C)c3)cc12 |  |  | 250 to 1000 | < 250 |  |
| CNC(=O)c1c(-c2ccc(F)cc2)oc2ccc(-c3cccc(C(=O)N4CCCCC4C)c3)cc12 (stereo not drawn) [drawing 611] |  |  |  |  | IC50 ([1]; untitled table after Table 1b): 290 nM; EC50 (HCV replicon cells; untitled table after Table 1b, values without asterisk): 1130 nM |
| CCC(NC(=O)c1ccc(F)c(-c2cc3c(C(=O)NC)c(-c4ccc(F)cc4)oc3cc2N)c1)c1ccccc1 (stereo not drawn) |  |  | < 250 | < 250 |  |
| CNC(=O)c1c(-c2ccc(F)cc2)oc2ccc(-c3cc(C(=O)NCC(C)C)ccc3OCC(F)F)cc12 |  |  | 250 to 1000 | < 250 |  |
| CNC(=O)c1c(-c2ccc(F)cc2)oc2ccc(-c3ccc(-c4cccc(-c5ccccc5)c4)c(C(=O)NCC(C)C)c3)cc12 |  |  | > 10000 | 250 to 1000 |  |
| CNC(=O)c1c(-c2ccc(F)cc2)oc2ccc(-c3cccc(C(=O)Nc4cccc(O)c4)c3)cc12 | 1000 to 10000 | 1000 to 10000 |  |  |  |
| CCn1nccc1NC(=O)c1cccc(-c2ccc3oc(-c4ccc(F)cc4)c(C(=O)NC)c3c2)c1 | 250 to 1000 | 250 to 1000 |  |  |  |
| CNC(=O)c1c(-c2ccc(F)cc2)oc2ccc(-c3cc(C(=O)NC4(c5cccnc5)CC4)ccc3C)cc12 |  |  | < 20 | < 250 |  |
| CNC(=O)c1c(-c2ccc(F)cc2)oc2ccc(-c3cccc(-c4nc(C(C)C)no4)c3)cc12 |  |  | > 1390 | 250 to 1000 |  |
| CNC(=O)c1c(-c2ccc(F)cc2)oc2ccc(-c3ccc(-c4cccnc4C)c(C(=O)NCC(C)C)c3)cc12 |  |  | < 250 | < 250 |  |
| CNC(=O)c1c(-c2ccc(F)cc2)oc2ccc(-c3cccc(C(=O)N[C@@H]4CCc5ccc(O)cc54)c3)cc12 | > 1390 | 250 to 1000 |  |  |  |
| CNC(=O)c1c(-c2ccc(F)cc2)oc2ccc(-c3cccc(C(=O)Nc4ccc(C)cn4)c3)cc12 | < 250 | < 250 |  |  |  |
| CNC(=O)c1c(-c2ccccc2)oc2ccc(-c3cc(C(=O)NC4(c5nnc(-c6ccccc6)[nH]5)CC4)ccc3C)cc12 |  |  | < 250 | < 250 |  |

| SMILES | IC50 ([1]; Table 1a) [nM] | EC50 (HCV replicon cells; Table 1a) [nM] | IC50 ([1]; Table 1b) [nM] | EC50 (HCV replicon cells; Table 1b) [nM] | other results |
| --- | --- | --- | --- | --- | --- |
| CNC(=O)c1c(-c2ccc(F)cc2)oc2ccc(-c3ccc(C(=O)N(C)C4CCN(C)C4)cc3)cc12 (stereo not drawn) | > 10000 | 1000 to 10000 |  |  |  |
| CCC(C)NC(=O)c1cccc(-c2ccc3oc(-c4ccc(F)cc4)c(C(=O)NC)c3c2)c1 (stereo not drawn) | < 250 | < 250 |  |  |  |
| CNC(=O)c1c(-c2ccc(F)cc2)oc2ccc(-c3ccc(C(=O)NCCc4ccccc4Cl)cc3)cc12 | > 10000 | > 10000 |  |  |  |
| CNC(=O)c1c(-c2ccc(F)cc2)oc2ccc(-c3cccc(C(=O)N4CCCCC4C)c3)cc12 (stereo not drawn) [drawing 208] | 250 to 1000 | 1000 to 10000 |  |  |  |
| CNC(=O)c1c(-c2ccc(F)cc2)oc2ccc(-c3ccc(C(=O)N(C)CCO)cc3)cc12 | 1000 to 10000 | > 10000 |  |  |  |
| CNC(=O)c1c(-c2ccc(F)cc2)oc2ccc(-c3cc(C(=O)NCC(C)C)ccc3OCCN3CCCC3)cc12 |  |  | < 250 | < 250 |  |
| CN1CN(C)c2c(-c3cccc(C(N)=O)c3)ccc3oc(-c4ccc(F)cc4)c(c23)C1=O [drawing 319] | > 10000 | > 10000 |  |  |  |
| CNC(=O)c1c(-c2ccc(F)cc2)oc2ccc(-c3ccc(NC(=O)CCC(=O)O)cc3)cc12 | 1000 to 10000 | > 10000 |  |  |  |
| CNC(=O)c1c(-c2ccc(F)cc2)oc2ccc(-c3cccc(C(=O)N4CC[C@H](NC(C)=O)C4)c3)cc12 [drawing 277] | 1000 to 10000 | > 10000 |  |  |  |
| CNC(=O)c1c(-c2ccc(F)cc2)oc2ccc(-c3cccc(C(=O)Nc4cnccn4)c3)cc12 | < 250 | < 250 |  |  |  |
| CNC(=O)c1c(-c2ccc(F)cc2)oc2ccc(-c3cccc(C(=O)NC4CCCCC4)c3)cc12 | < 250 | < 250 |  |  |  |
| CNC(=O)c1c(-c2ccc(F)cc2)oc2ccc(-c3cccc(S(=O)(=O)NC(C)C)c3)cc12 | > 10000 | > 10000 |  |  |  |
| CNC(=O)c1c(-c2ccc(F)cc2)oc2ccc(-c3cc(C)c(Br)cc3C)cc12 | > 10000 | > 3700 |  |  |  |
| CNC(=O)c1c(-c2ccc(F)cc2)oc2ccc(-c3cc(C(=O)NC4(c5ccccn5)CC4)cc(F)c3C)cc12 [drawing 558] |  |  | < 250 | < 250 |  |
| CNC(=O)c1c(-c2ccc(F)cc2)oc2ccc(-c3cc(C(=O)NCC(C)C)ccc3OC3CCC(N)C3)cc12 (stereo not drawn) |  |  | < 250 | < 250 |  |
| CNC(=O)c1c(-c2ccc(F)cc2)oc2ccc(-c3ccccc3/C=C/C(=O)O)cc12 | 1000 to 10000 | > 10000 |  |  |  |
| CNC(=O)c1c(-c2ccc(F)cc2)oc2ccc(-c3cc(C(=O)NCC(C)C)ccc3OC(F)F)cc12 |  |  | < 250 | < 250 |  |
| CNC(=O)c1c(-c2ccc(F)cc2)oc2ccc(-c3cc(C(=O)NC4(c5nnc(-c6cccc(OC)c6)[nH]5)CC4)ccc3C)cc12 |  |  | < 250 | < 250 |  |
| CNC(=O)c1c(-c2ccc(F)cc2)oc2ccc(-c3cccc(C(=O)N(C)CCN(C)C)c3)cc12 | > 10000 | 1000 to 10000 |  |  |  |
| CNC(=O)c1c(-c2ccc(F)cc2)oc2ccc(-c3cccc(C(=O)NC4(CO)CCCC4)c3)cc12 | < 250 | < 250 |  |  |  |
